Values after ≈ are worked out from the molar mass of the structure shown. Read-outs that look alike come from different tables or passages of the source. *1 amine or outer side, *2 acyl side, *3 side chain or, on linkers, in order; H or OH if unused. Where a SMILES comes first, the peptide text is derived from it. Bridges are numbered along the chain shown (N, C = ends). [ ]: non-standard residue; d: D form. The star is where a group is joined. ξ: configuration not given here. NH(1,3-benzodioxol-5-yl) = c1cc2c(cc1N*)OCO2; Phe(3,5-F2) = N[C@@H](Cc1cc(F)cc(F)c1)C(=O)O; Morpholine(3S-CO) = O=C(O)[C@@H]1COCCN1; Pro(4R-Me) = C[C@H]1CN[C@H](C(=O)O)C1; X11 = O=C(C1C[C@@H](F)CN1[*:1])[*:2]; X9 = CC1(C)CC(C(=O)[*:2])N([*:1])C1; NH(4-Me-phenyl) = Cc1ccc(N*)cc1; aThr = C[C@H](O)[C@H](N)C(=O)O; ξPip = O=C(O)C1CCCCN1; CO = O=C([*:1])[*:2]; ξP = O=C(O)C1CCCN1
Key:
Type in all cases: cell-based
[1] = test system: Staphylococcus aureus, USA 300; experiment: Minimal inhibitory concentration assay; conditions: USA300, read-out: Minimal Inhibitory Concentrations S. aureus USA 300
Procedure: (§1) It is understood, that in various aspects, the MIC is determined by a microbroth dilution method. In a further aspect, the MIC is determined by a microbroth dilution method using Staphylococcus aureus, ATCC 29213. In a still further aspect, the MIC is determined by a microbroth dilution method using Staphylococcus aureus, NRS70. In a yet further aspect, the MIC is determined by a microbroth dilution method using Streptococcus pyogenes, ATCC 700294. In an even further aspect, the MIC is determined by a microbroth dilution method using Streptococcus pneumoniae, DAW27. In a still further aspect, the MIC is determined by a microbroth dilution method using Bacillus subtilis, ATCC 23857. In a yet further aspect, the MIC is determined by a microbroth dilution method using Enterococcus faecalis, ATCC 33186. In an even further aspect, the MIC is determined using Staphylococcus aureus, USA 300. In a still further aspect, the MIC is determined using Streptococcus pneumoniae, R6. In a further aspect, the MIC is determined using Staphylococcus aureus, USA 300 and compared to the MIC determined using Staphylococcus aureus, USA 300 wherein ClpP is inactivated, thus allowing confirmation that killing is via a ClpP-dependent pathway.
(§2) Minimal inhibitory concentrations (“MICs”) were determined using the microbroth dilution method according to Clinical Laboratory Standards Institute (CLSI; National, C.F. C. L. S., Methods for Dilution Antimicrobial Susceptibility Tests for Bacteria Grow aerobically-Seventh Edition: Approved Standard M7-A7, CLSI, Wayne, Pa., USA, 2008) and were read by visual inspection. Two fold serial dilutions of test compound in 100 μL of the appropriate broth media were first prepared in 96-well round bottom microtiter plates (Nalgene Nunc International, Rochester, N.Y., USA). An equivalent volume (100 μL) of bacterial broth inocula containing approximately 10^5 bacterial cfu/mL was added to each well to give final concentrations of test compound starting at 200 μM. The plates were then incubated aerobically at 37° C. All strains were incubated overnight. After incubations, in all cases the MIC was recorded as the lowest concentration of drug that prevented bacterial growth. The bacterial strains for which MIC was determined as described in Table 4.

[2] = test system: Staphylococcus aureus, USA 300 wherein ClpP is inactivated; experiment: Minimal inhibitory concentration assay
Procedure: as §1, §2

[3] = test system: Streptococcus pyogenes, ATCC 700294; experiment: Minimal inhibitory concentration assay (microbroth dilution)
Procedure: as §1
Minimal inhibitory concentrations (“MICs”) were determined using the microbroth dilution method according to Clinical Laboratory Standards Institute (CLSI; National, C.F. C. L. S., Methods for Dilution Antimicrobial Susceptibility Tests for Bacteria Grow aerobically-Seventh Edition: Approved Standard M7-A7, CLSI, Wayne, Pa., USA, 2008) and were read by visual inspection. Two fold serial dilutions of test compound in 100 μL of the appropriate broth media were first prepared in 96-well round bottom microtiter plates (Nalgene Nunc International, Rochester, N.Y., USA). […] The plates were then incubated aerobically at 37° C. All strains were incubated overnight. After incubations, in all cases the MIC was recorded as the lowest concentration of drug that prevented bacterial growth. The bacterial strains for which MIC was determined as described in Table 4.

[4] = test system: Streptococcus pneumoniae, R6; experiment: Minimal inhibitory concentration assay; conditions: read-out: Minimal Inhibitory Concentrations S. pneumoniae R6
Procedure: It is understood, that in various aspects, the MIC is determined by a microbroth dilution method. […] In a still further aspect, the MIC is determined by a microbroth dilution method using Staphylococcus aureus, NRS70. […] In an even further aspect, the MIC is determined by a microbroth dilution method using Streptococcus pneumoniae, DAW27. […] In an even further aspect, the MIC is determined using Staphylococcus aureus, USA 300. In a still further aspect, the MIC is determined using Streptococcus pneumoniae, R6. In a further aspect, the MIC is determined using Staphylococcus aureus, USA 300 and compared to the MIC determined using Staphylococcus aureus, USA 300 wherein ClpP is inactivated, thus allowing confirmation that killing is via a ClpP-dependent pathway.
Two fold serial dilutions of test compound in 100 μL of the appropriate broth media were first prepared in 96-well round bottom microtiter plates (Nalgene Nunc International, Rochester, N.Y., USA). […] The plates were then incubated aerobically at 37° C. All strains were incubated overnight. After incubations, in all cases the MIC was recorded as the lowest concentration of drug that prevented bacterial growth. The bacterial strains for which MIC was determined as described in Table 4.

[5] = test system: Staphylococcus aureus, NRS70; experiment: Minimal inhibitory concentration assay (microbroth dilution)
Procedure: as §1, §2

[6] = test system: Bacillus subtilis, ATCC 23857; experiment: as above
Procedure: as §1, §2

[7] = test system: Staphylococcus aureus, ATCC 29213; experiment: as above; conditions: ATCC29213, read-out: Minimal Inhibitory Concentrations S. aureus ATCC 29213
Procedure: as §1, §2

[8] = Streptococcus pyogenes, ATCC700294; read-out: Minimal Inhibitory Concentrations S. pyogenes ATCC 700294
[9] = Staphylococcus aureus, NRS70; read-out: Minimal Inhibitory Concentrations S. aureus NRS70
[10] = Bacillus subtilis, ATCC23857; read-out: Minimal Inhibitory Concentrations B. subtilis ATCC 23857
[11] = Streptococcus pyogenes, ATCC700294, read-out: Minimal Inhibitory Concentrations S. pyogenes ATCC 700294
[12] = Staphylococcus aureus, NRS70, read-out: Minimal Inhibitory Concentrations S. aureus NRS70
[13] = Bacillus subtilis, ATCC23857, read-out: Minimal Inhibitory Concentrations B. subtilis ATCC 23857

SMILES: CN[C@@H]1[C@H](O)[C@H](NC)[C@H]2O[C@@]3(O)C(=O)C[C@@H](C)O[C@H]3O[C@@H]2[C@H]1O [Spectinomycin, spectinomycin, reference compound]
- MIC [1]: 50 µM (≈ 16.6 µg/mL)
- Minimal Inhibitory Concentrations S. aureus USA 300 ΔClpP [2]: 25 µM
- MIC [3, 8]: 12.5 µM (≈ 4.15 µg/mL)
- MIC [4]: 6.3 µM (≈ 2.09 µg/mL)
- MIC [5, 9]: > 800 µM
- MIC [6, 10]: 6.3 µM (≈ 2.09 µg/mL)
- MIC [7]: 50 µM (≈ 16.6 µg/mL)

SMILES: C[C@@H]1C[C@H]2C(=O)O[C@@H](C)[C@H](NC(=O)[C@H](Cc3cc(F)cc(F)c3)NC(=O)Nc3ccc4c(c3)OCO4)C(=O)N3CCC[C@H]3C(=O)N3CCOC[C@H]3C(=O)N[C@@H](C)C(=O)N2C1 [Compound 199, (S)-2-(3-(benzo[d][1,3]dioxol-5-yl)ureido)-3-(3,5-difluorophenyl)-N-((6aS,12S,13S,15aS,17R,21S,23aS)-13,17,21-trimethyl-6,11,15,20,23-pentaoxooctadecahydro-6H,11H,15H-[1,4]oxazino[3,4-i]dipyrrolo[2,1-c:2′,1′-l][1]oxa[4,7,10,13]tetraazacyclohexadecin-12-yl)propanamide] ({NH(1,3-benzodioxol-5-yl)-CO}-[Phe(3,5-F2)][aThr]P[Morpholine(3S-CO)]A[Pro(4R-Me)]; ester 2-C)
- MIC [1]: 0.078 µM (≈ 0.0655 µg/mL)
- Minimal Inhibitory Concentrations S. aureus USA 300 ΔClpP [2]: >20 µM
- MIC [3, 8]: 0.039 µM (≈ 0.0328 µg/mL)
- MIC [4]: < 0.02 µM
- MIC [5, 9]: 0.039 µM (≈ 0.0328 µg/mL)
- MIC [6, 10]: 0.039 µM (≈ 0.0328 µg/mL)
- MIC [7]: 0.039 µM (≈ 0.0328 µg/mL)

SMILES: Cc1ccc(NC(=O)N[C@@H](Cc2cc(F)cc(F)c2)C(=O)N[C@H]2COC(=O)C3CC(C)(C)CN3C(=O)[C@H](C)NC(=O)C3CCCCN3C(=O)C3CCCN3C2=O)cc1 (stereo partly drawn) [Compound 49, (S)-3-(3,5-difluorophenyl)-2-(3-(p-tolyl)ureido)-N-((6S,8aS,14aS,20S,23aS)-2,2,6-trimethyl-5,8,14,19,23-pentaoxooctadecahydro-1H,5H,14H,19H-pyrido[2,1-i]dipyrrolo[2,1-c:2′,1′-l][1]oxa[4,7,10,13]tetraazacyclohexadecin-20-yl)propanamide] ({NH(4-Me-phenyl)-CO}-[Phe(3,5-F2)]S[ξP][ξPip]A[X9]; ester 2-C)
- MIC [1]: 25 µM (≈ 20.2 µg/mL)
- Minimal Inhibitory Concentrations S. aureus USA 300 ΔClpP [2]: 100 µM
- MIC [3, 11]: 25 µM (≈ 20.2 µg/mL)
- MIC [4]: 6.3 µM (≈ 5.09 µg/mL)
- MIC [5, 12]: 12.5 µM (≈ 10.1 µg/mL)
- MIC [6, 13]: 0.4 µM (≈ 0.323 µg/mL)
- MIC [7]: 12.5 µM (≈ 10.1 µg/mL)

SMILES: Cc1ccc(NC(=O)N[C@@H](Cc2cc(F)cc(F)c2)C(=O)N[C@H]2COC(=O)C3C[C@@H](F)CN3C(=O)[C@H](C)NC(=O)C3CCCCN3C(=O)C3CCCN3C2=O)cc1 (stereo partly drawn) [Compound 51, (S)-3-(3,5-difluorophenyl)-N-((2R,6S,8aS,14aS,20S,23aS)-2-fluoro-6-methyl-5,8,14,19,23-pentaoxooctadecahydro-1H,5H,14H,19H-pyrido[2,1-i]dipyrrolo[2,1-c:2′,1′-l][1]oxa[4,7,10,13]tetraazacyclohexadecin-20-yl)-2-(3-(p-tolyl)ureido)propanamide] ({NH(4-Me-phenyl)-CO}-[Phe(3,5-F2)]S[ξP][ξPip]A[X11]; ester 2-C)
- MIC [1]: 12.5 µM (≈ 9.97 µg/mL)
- Minimal Inhibitory Concentrations S. aureus USA 300 ΔClpP [2]: >200 µM
- MIC [3, 11]: 12.5 µM (≈ 9.97 µg/mL)
- MIC [4]: 6.3 µM (≈ 5.03 µg/mL)
- MIC [5, 12]: 6.3 µM (≈ 5.03 µg/mL)
- MIC [6, 13]: > 200 µM
- MIC [7]: 12.5 µM (≈ 9.97 µg/mL)

Reference: patent publication US10457707B2, “Substituted urea depsipeptide analogs as activators of the CLPP endopeptidase” (priority 2015, dated 2019)
